Reference: paper PMC7663979, “Design of Novel 4-Aminobenzofuroxans and Evaluation of Their Antimicrobial and Anticancer Activity” (International Journal of Molecular Sciences, 2020)
Several values for one entry are separate records, joined by “and”; a condition that tells them apart may be missing. Identical values can stand only once. Like-named read-outs stand apart in the source and are kept apart here.

What was measured:
[1] = tested on: PANC-1; assay: Cytotoxicity assay (Cytell Cell Viability BioApp), PANC-1; type: cell-based, human; conditions: for IC50: Homo sapiens, PANC-1, mean ± SD, three experiments; for SI PANC-1: selectivity index = IC50 normal cells (Chang liver) / IC50 cancer cells, n.s. = no selectivity
[2] = tested on: MCF7; assay: Cytotoxicity assay (Cytell Cell Viability BioApp), MCF7; type: cell-based, human; conditions: for IC50: Homo sapiens, MCF7, mean ± SD, three experiments; for SI MCF7: selectivity index = IC50 normal cells (Chang liver) / IC50 cancer cells, n.s. = no selectivity
[3] = tested on: M-HeLa cells; assay: Cell apoptosis analysis by flow cytometry (annexin V-Alexa Fluor 647 / propidium iodide); type: cell-based, human; conditions: 24 h
Description: (§1) Cell Culture. M-HeLa cells at 10^6 cells/ well in a final volume of 2 mL were seeded into 6-well plates. After 24 h of incubation, various concentrations of compounds 3c and 3f were added to wells.
Cell Apoptosis Analysis. The cells were harvested at 2000 rpm for 5 min and, then, washed twice with ice-cold PBS, followed by resuspension in binding buffer 100 μL. Next, the samples were incubated with 0.35 μL of annexin V-Alexa Fluor 647 and 0.1 μL of propidium iodide for 40 min at room temperature in the dark. Finally, the cells were analyzed by flow cytometry (Guava easyCyte, MERCK, Kenilworth, NJ, USA). The experiments were repeated three times.

[4] = tested on: Vibrio aquamarinus DSM 26054; design: method as in PMID 31450696; conditions: control = 100%, data first published in ref 40, cited from earlier work
[5] = tested on: T98G; assay: cells; type: cell-based, human; conditions: for IC50: Homo sapiens, T98G, read-out: IC50 T98G; for SI T98G: selectivity index = IC50 normal cells (Chang liver) / IC50 cancer cells, n.s. = no selectivity
[6] = tested on: M-HeLa; assay: Cytotoxicity assay (Cytell Cell Viability BioApp), M-HeLa; type: cell-based, human; conditions: for IC50: Homo sapiens, M-HeLa, mean ± SD, three experiments; for SI M-HeLa: selectivity index = IC50 normal cells (Chang liver) / IC50 cancer cells, n.s. = no selectivity
[7] = tested on: M-HeLa cells; assay: Cell cycle analysis, propidium iodide, flow cytometry; type: cell-based, human; conditions: 15 μM, 24 h; control cells 34.28%
Description: as §1
The DNA content and cell-cycle distribution after […] were estimated by flow cytometry. Cell seeding, drug treatment and ethanol fixation were similar to cell proliferation assay. After washing with PBS, […] were suspended in 150 μL of PBS, then 0.5 mL phosphate-citrate buffer (0.05 M, pH = 4.0) was added and the suspension was incubated at room temperature for 5 min to facilitate the extraction of low molecular weight DNA. Following centrifugation the cells were resuspended in 150 μL DNA staining solution (20 μg/mL propidium iodide, 200 μg/mL […], and 0.1% Triton X-100) and incubated in the CO2 incubator (37 °C for 30 min). Cell cycle distribution was determined by fluorescence-activated cell sorting analysis of propidium iodide-stained ethanol-fixed cells using a Guava EasyCyte (Guava easyCyte, MERCK, Kenilworth, NJ, USA).

[8] = tested on: Chang Liver; assay: Cytotoxicity assay (Cytell Cell Viability BioApp), normal Chang liver cells; type: cell-based; conditions: Homo sapiens, mean ± SD, three experiments, read-out: IC50 Chang Liver (normal cell line)
[9] = tested on: M-HeLa cells; assay: Mitochondrial membrane potential, JC-10, flow cytometry; type: cell-based, human; conditions: ≥ IC 50 concentrations
Description: as §1
The cells were harvested at 2000 rpm for 5 min and, then, washed twice with ice-cold PBS, followed by resuspension in JC-10 (10 µg/mL) and incubation at 37 °C for 10 min. After the cells were rinsed three times and suspended in PBS, the JC-10 fluorescence was observed by flow cytometry.

Compound | IC50 [1] [µM] | SI PANC-1 [1] | IC50 [2] [µM] | SI MCF7 [2] | IC50 [5] [µM] | SI T98G [5] | IC50 [6] [µM] | SI M-HeLa [6] | IC50 [8] [µM] | intensity of red fluorescence (JC-10) compared to the control [9] | further results
O=[N+]([O-])c1c(Cl)cc2c(no[n+]2[O-])c1Nc1cccc(O)c1 [Compound 3f, 6-chloro-4-((3-hydroxyphenyl)amino)-5-nitrobenzofuroxan] | > 100 | n.s. | 8.1 ± 0.7 | 8.0 | 59.8 ± 4.8 | 1.1 | 16 ± 1.3 | 4.0 | 64.4 ± 5.7 | – | D—dead cells ([3]; 10 μM): 5.03%; Ea—early apoptotic cells ([3]; 10 μM): 14.46%; La—late apoptotic cells ([3]; 10 μM): 12.79%; L—living cells ([3]; 10 μM): 67.72%; D—dead cells ([3]; 15 μM): 8.16%; Ea—early apoptotic cells ([3]; 15 μM): 17.59%; La—late apoptotic cells ([3]; 15 μM): 16.83%; L—living cells ([3]; 15 μM): 57.42%; Biofilm Formation, % ([4]; compound concentration 1 × 10^−4 M): 98.97%; Biofilm Formation, % ([4]; compound concentration 1 × 10^−5 M): 96.57%; Biofilm Formation, % ([4]; compound concentration 1 × 10^−6 M): 43.56% and 43.56 * %; Biofilm Formation, % ([4]; compound concentration 1 × 10^−7 M): 11.34% and 11.34 * %; Biofilm Formation, % ([4]; compound concentration 1 × 10^−8 M): 9.31% and 9.31 * %; Biofilm Formation, % ([4]; compound concentration 1 × 10^−9 M): 66.58%; cells in G0/G1 phase (G1) [7]: 66.8%
CC(C)c1ccc(Nc2c([N+](=O)[O-])cc([N+](=O)[O-])c3no[n+]([O-])c23)cc1 [Compound 6, 7-(4-isopropylphenylamino)-4,6-dinitrobenzofuroxan] | – | – | – | – | – | – | – | – | – | – | melting point: 110 to 111 °C
O=[N+]([O-])c1c(Cl)cc2c(no[n+]2[O-])c1NCCCN1CCOCC1 [Compound 5c, 6-chloro-4-((3-morpholinopropyl)amino)-5-nitrobenzofuroxan] | 38 ± 2.9 | >2.6 | > 100 | n.s. | > 100 | n.s. | 49.3 ± 3.9 | >2 | > 100 | did not change significantly | –
O=[N+]([O-])c1c(Cl)cc2c(no[n+]2[O-])c1N1CCCC1 [Compound 5g, 6-chloro-5-nitro-4-(pyrrolidin-1-yl)benzofuroxan] | > 100 | n.s. | > 100 | n.s. | > 100 | n.s. | > 100 | n.s. | > 100 | did not change significantly | –
